Structures are written as SMILES.

Settings in all cases: 48 h
Test [1] concerns NCI-H295R. The test is described as follows: AC50 viability; higher = less potent. The gist of the method: (§1)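 Library compounds were tested at 11 concentrations against three adrenocortical carcinoma cell lines in 1,536-well plates. CellTiter-Glo luminescence was read after 48 h and normalised per plate to vehicle and empty-well controls. Only inhibitory or non-responding curve classes from fitted concentration-response curves contributed AC50 and area under the curve.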

For test [2], the system named is CU-ACC1. Description: AC50 viability; higher = less potent. The gist of the method: as §1
For test [3], the system named is CU-ACC2. The test is described as follows: AC50 viability; higher = less potent. The gist of the method:
as §1

Test [4] relates to NCI-H295R. Description: area under concentration-response curve (viability) (AUC (a.u.)); higher = less active. The gist of the method: as §1
Test [5] relates to CU-ACC1. The test is described as above. The gist of the method:
as §1

Test [6] deals with CU-ACC2. The description is as above. The gist of the method: as §1

As for `COc1cccc2c1C(=O)c1c(O)c3c(c(O)c1C2=O)C[C@@](O)(C(=O)CO)C[C@@H]3O[C@H]1C[C@H](N)[C@@H](O)[C@H](C)O1`, the AC50 viability in test [1] was 18.6 µM; in test [2] it was 10.5 µM; in test [3], 8.33 µM. Moreover, the “area under concentration-response curve” value in test [4] turned out to be 510; in test [5], 424; in test [6], 507.

Regarding `CC(O)(C#Cc1ccc2c(c1)N(c1nc(N)ncc1Cl)CC2)c1nccs1` (stereo not given), the AC50 viability in test [1] was 16.6 µM; in test [2], 14.8 µM; in test [3], 18.6 µM. In addition, the “area under concentration-response curve” value in test [4] was determined as 507; in test [5], 494; in test [6], 560.

Turning to `COc1cc(N2CCC(N3CCN(C)CC3)CC2)ccc1Nc1ncc(Cl)c(Nc2ccccc2P(C)(C)=O)n1`, the AC50 viability in test [1] was determined as 2.63 µM; in test [2], 2.09 µM; in test [3], 1.32 µM. For the same compound, the “area under concentration-response curve” value was 409 in test [4], 383 in test [5] and 398 in test [6].

As to `COc1cc2nc(N3CCCN(C)CC3)nc(NC3CCN(Cc4ccccc4)CC3)c2cc1OC`, the AC50 viability was 9.34 µM in test [1], 13.2 µM in test [2] and 8.33 µM in test [3]. Further, the entries for the “area under concentration-response curve” value in test [4], in test [5] and in test [6] were 494, 362 and 535, respectively.

As for `CN1CCC(CNc2ccc3ncc(-c4cccc(OC(F)(F)F)c4)n3n2)CC1`, the AC50 viability came out at 9.34 µM in test [1], 7.42 µM in test [2] and 13.2 µM in test [3]. The “area under concentration-response curve” value in test [4] amounted to 416; in test [5] it was 413; in test [6], 460.

On to `COc1cc2c(NC3CCN(CC4CCCCC4)CC3)nc(N3CCCN(C(C)C)CC3)nc2cc1OCCCN1CCCCC1`, for which the AC50 viability in test [1] was 16.6 µM; in test [2], 20.9 µM; in test [3] it was 10.5 µM. In addition, the “area under concentration-response curve” value in test [4] amounted to 449; in test [5], 426; in test [6], 485.

With `COc1cc(N2CCC(N(C)C)CC2)ccc1Nc1ncc(Cl)c(Nc2ccccc2P(C)(C)=O)n1`, the figures for the AC50 viability in test [1], in test [2] and in test [3] were 3.72 µM, 7.42 µM and 5.25 µM, respectively. Moreover, the “area under concentration-response curve” value turned out to be 426 in test [4], 424 in test [5] and 419 in test [6].

Regarding `C[C@@H]1CC[C@@]2(OC1)O[C@H]3C[C@H]4[C@@H]5C/C=C6/C[C@H](CC[C@]6(C)[C@H]5CC[C@]4(C)[C@H]3[C@@H]2C)O[C@@H]7O[C@H](CO)[C@@H](O[C@@H]8O[C@@H](C)[C@H](O)[C@@H](O)[C@H]8O)[C@H](O)[C@H]7O[C@@H]9O[C@@H](C)[C@H](O)[C@@H](O)[C@H]9O`, the AC50 viability in test [1] came to 1.18 µM; in test [2] it was 4.68 µM; in test [3], 7.42 µM. Also, the “area under concentration-response curve” value in test [4] was 386; in test [5] it was 446; in test [6], 524.

`Fc1cccc(-n2cnc3c(NCc4nc5ccc(F)c(F)c5[nH]4)nc(N4CCOCC4)nc32)c1`: the results for the AC50 viability in test [1], in test [2] and in test [3] were 1.05 µM, 0.661 µM and 0.742 µM, respectively. Besides, the figures for the “area under concentration-response curve” value in test [4], in test [5] and in test [6] were 394, 367 and 371, respectively.

As for `O=C1NCCc2[nH]c(-c3ccncc3)cc21`, the AC50 viability in test [1] stood at 4.68 µM; in test [2] it was 3.32 µM; in test [3] it was 1.86 µM. Moreover, the results for the “area under concentration-response curve” value in test [4], in test [5] and in test [6] were 423, 338 and 406, respectively.

Take `COc1cc(O)c2c(c1)C1OC1C[C@H](O)[C@H](O)C(=O)/C=C\C[C@H](C)OC2=O` (stereo not given in full): the figures for the AC50 viability in test [1], in test [2] and in test [3] were 14.8 µM, 6.61 µM and 16.6 µM, respectively. The “area under concentration-response curve” value in test [4] was found to be 435; in test [5], 429; in test [6], 492.

On to `Cc1cc(-c2ccc(CC(=O)Nc3ccc(-c4cccnc4)cc3)cc2)ccn1`, for which the AC50 viability in test [1] was found to be 16.6 µM; in test [2], 20.9 µM; in test [3], 23.5 µM. In addition, the “area under concentration-response curve” value in test [4] came out at 440; in test [5], 435; in test [6] it was 460.

For the compound `COc1cc(OCc2cccc(-c3ccccc3)c2C)cc(OC)c1CN1CCCC[C@H]1C(=O)O`, the results for the AC50 viability in test [1], in test [2] and in test [3] were 18.6 µM, 16.6 µM and 20.9 µM, respectively. Moreover, the “area under concentration-response curve” value in test [4] came to 514; in test [5], 444; in test [6], 546.

Take `Fc1ccc(C(OCCN2CCN(CCCc3ccccc3)CC2)c2ccc(F)cc2)cc1`: the AC50 viability in test [1] was found to be 14.8 µM; in test [2], 16.6 µM; in test [3], 18.6 µM. Further, the “area under concentration-response curve” value in test [4] came to 423; in test [5] it was 471; in test [6] it was 490.

As to `Cc1cnc(Nc2ccc(CN3CCOCC3)cc2)nc1Nc1cccc([S+](=O)([O-])NC(C)(C)C)c1`, the AC50 viability in test [1] was 9.34 µM; in test [2], 20.9 µM; in test [3], 11.8 µM. The “area under concentration-response curve” value in test [4] was found to be 492; in test [5] it was 445; in test [6] it was 509.

Turning to `COc1ccc(-c2nc(N3CCOCC3)c3sc(CN(C)c4ncc(C(=O)NO)cn4)cc3n2)cn1`, the AC50 viability stood at 0.059 µM in test [1], 0.0417 µM in test [2] and 0.186 µM in test [3]. The “area under concentration-response curve” value was found to be 285 in test [4], 211 in test [5] and 281 in test [6].

For `COCCNCCc1cccc(Nc2ncc3c(n2)-c2ccccc2[C@H](c2ccccc2F)C3)c1`, the figures for the AC50 viability in test [1], in test [2] and in test [3] were 8.33 µM, 11.8 µM and 26.3 µM, respectively. Also, the “area under concentration-response curve” value in test [4] amounted to 467; in test [5], 496; in test [6], 502.

In the case of `Cc1ccc(C(=O)Nc2cccc(C(F)(F)F)c2)cc1-c1ccc2nc(NCCN3CCOCC3)ncc2c1`, the AC50 viability in test [1] was found to be 18.6 µM; in test [2] it was 10.5 µM; in test [3], 18.6 µM. The “area under concentration-response curve” value worked out at 546 in test [4], 481 in test [5] and 576 in test [6].

For the compound `C[N]1N=C(C)C2=C1OC(=C(/C#N)C2C3=CC=C(C=C3)C(F)(F)F)/N` (stereo not given), the AC50 viability in test [1], in test [2] and in test [3] was 18.6 µM each time. The figures for the “area under concentration-response curve” value in test [4], in test [5] and in test [6] were 479, 460 and 422, respectively.

Turning to `CCNC(=O)C#Cc1ccc2c(c1)NC(=O)/C2=C(\Nc1ccc(CN(C)C)cc1)c1ccccc1`, the results for the AC50 viability in test [1], in test [2] and in test [3] were 2.57 µM, 0.91 µM and 2.88 µM, respectively. Moreover, the “area under concentration-response curve” value in test [4] turned out to be 524; in test [5], 443; in test [6] it was 536.

These data come from the supplement of paper PMC10949913.
